This note sets out measurements from patent US20210309658A1, “ARYL COMPOUNDS FOR THE TREATMENT AND PROPHYLAXIS OF BACTERIAL INFECTION” (Hoffmann-La Roche Inc., priority 2018, published 2021).

One data set concerns E. coli (ATCC 25922). As to the kind of experiment: Minimal Inhibitory Concentration (MIC) assay. Format: cell-based. The conditions noted are these: Escherichia coli, ATCC25922; CAMHB, 20 hours at 35° C.; read-out: MIC (μg/mL) E. coli ATCC 25922.
Data set [1] deals with K. pneumoniae (ATCC10031). In words: 50% growth inhibitory concentration (IC50) determination assay, K. pneumoniae. The data set is classed as cell-based. The conditions noted are these: Klebsiella pneumoniae, ATCC10031; growth inhibition, Iso-Sensitest broth, OD 600 nm over 16 h; * = detection limit; read-out: IC50 (μM) K. pneumoniae ATCC10031. Put shortly:
(§1)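 Two-fold dilutions (50 to 0.097 μM final) tested in Iso-Sensitest broth at ~5×10^5 CFU/mL, 35±2 °C. OD600 read every 20 min over 16 h; IC50 derived from growth inhibition during logarithmic phase.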

Data set [2] can be described thus: Cytotoxicity assay (HepG2, CellTiter-Blue). The data set is classed as cell-based. The conditions noted are these: human; HepG2 cells, 3 days treatment; * = detection limit. As for the experimental part: The cytotoxicity of compounds of present invention was assessed by HepG2 assay. HepG2 cells (ATCC HB-8065™) were seeded into 96-well plates (1.2×10^4 cells per well) and treated with compounds for 3 days, cell viability was measured at day 3 post compound treatment using the CellTiter-Blue® Cell Viability Assay (Promega, Cat. No. G8082). 20 μL of Cell titer blue buffer were added to each well of the cells, incubated for 3 hours at 37° C., and the fluorescence value was measured by a plate reader (Molecular Device SpectraMax M2). The CC50 value of each compound is plotted with GraphPad Prism using four parameter logistic equation.
(In general: The colour change of resazurin is a common sign of viable cells or microbes.)

The next data set has as its system E. coli (BW25113). As to the kind of experiment: 50% growth inhibitory concentration (IC50) determination assay, E. coli. The note with it: Escherichia coli, BW25113; growth inhibition, Iso-Sensitest broth, OD 600 nm over 16 h; read-out: IC50 (μM) E. coli K12 BW25113. Format: cell-based. Put shortly: as §1
A short description of data set [3]: Lyophilisation Solubility Assay (LYSA). The data set is classed as physicochemical. The note with it: aqueous buffer, thermodynamic from solid; 0.05 M phosphate buffer, pH 6.5; * = detection limit. As for the experimental part:
The solubility of compounds of present invention was assessed by LYSA assay. Samples were prepared in duplicate from 10 mM DMSO stock solutions (20 μL) diluted in 30 μL pure DMSO. After evaporation of DMSO with a centrifugal vacuum evaporator, the residue was dissolved in 0.05 M phosphate buffer (150 μL, pH 6.5), stirred for one hour and shook for two hours. After one night, the solution was filtered using a microtiter filter plate. Then the filtrate and its 1/10 dilution were analyzed by HPLC-UV. In addition a four-point calibration curve was prepared from the 10 mM stock solutions and used for the solubility determination of the compounds.

Converted amounts (≈) assume the structure as drawn.

`CNc1c(F)c(F)cc2c1[nH]c1ncc(-c3cncc(C#N)c3)c(-n3cc(CN)c(C(F)(F)F)n3)c12` [Example 1.49, 5-[4-[4-(Aminomethyl)-3-(trifluoromethyl)pyrazol-1-yl]-6,7-difluoro-8-(methylamino)-9H-pyrido[2,3-b]indol-3-yl]pyridine-3-carbonitrile]: the MIC in the data set with E. coli (ATCC 25922) was 0.359 µg/mL (≈ 0.72 µM). Also, the 50% inhibitory concentration (IC50) (commonly the concentration at which inhibition is half-maximal) in data set [1] amounted to 0.098 µM; with E. coli (BW25113), 0.698 µM. Besides, the half-maximal cytotoxic concentration (CC50) (commonly the concentration at which the toxic effect on the cells reaches its halfway point) at 3 days in data set [2] was found to be 12800 nM. The solubility (thermodynamic) (usually solubility found after equilibrating the solid with the medium) in data set [3] was 14 µg/mL (≈ 28.1 µM).

With `CNc1cc(F)cc2c1[nH]c1nc(Oc3cnc(C)nc3)nc(N3C[C@H]4C[C@@H]3C[C@H]4N)c12` [GP-6, reference compound], the MIC in the data set on E. coli (ATCC 25922) amounted to 0.127 µg/mL (≈ 0.292 µM). Also, the IC50 was at most 0.098 µM in data set [1] and 0.17 µM with E. coli (BW25113). In data set [2], this molecule came in with a cytotoxic concentration (CC50) at 3 days of 5600 nM. This molecule also displayed a solubility (thermodynamic) in data set [3] below 1 µg/mL.
